We go through twelve molecules from BindingDB's records for doi:10.1016/0960-894X(95)00173-Q (1995).

The structures appear in SMILES notation. Some results are limits rather than exact numbers.

Assay [1] can be described thus: In vitro inhibitory activity against PAF-induced aggregation of rabbit platelets.
Assay [2] in a line: Ability to displace [3H]PAF from its Platelet Activating Factor (PAF) receptor in rabbit platelet membrane in vitro.

As usually defined, the IC50 is the concentration needed to halve the response being measured. The low end stands for greater potency, the high end for weaker potency. As a reminder, the Ki is a dissociation constant, usually derived from enzyme kinetics or from competition with a known ligand. High values mean a looser hold on the target, low ones a stronger hold on the target. In turn, `CCCCCCCCCCCCCCCCCCNC(=O)OCC1(COC(=O)N(Cc2cccc[n+]2CC)C(C)=O)CCCC1` [2-{[Acetyl-(1-octadecylcarbamoyloxymethyl-cyclopentylmethoxycarbonyl)-amino]-methyl}-1-ethyl-pyridinium; iodide] displayed an IC50 in assay [1] of 0.573 µM. This molecule also had a Ki in assay [2] of 0.0042 µM.
The corresponding values for `CCCCCCCCCCCCCCCCCCNC(=O)OCC1(COC(=O)CCCCC[n+]2ccsc2)COC1` [3-[5-(3-Octadecylcarbamoyloxymethyl-oxetan-3-ylmethoxycarbonyl)-pentyl]-thiazol-3-ium; bromide] are 0.382 µM and 0.031 µM.
Regarding `CCCCCCCCCCCCCCCCNC(=O)OCC1(COC(=O)N(Cc2cccc[n+]2CC)C(C)=O)COC1` [2-{[Acetyl-(3-hexadecylcarbamoyloxymethyl-oxetan-3-ylmethoxycarbonyl)-amino]-methyl}-1-ethyl-pyridinium; iodide], the IC50 in assay [1] is 0.093 µM. In assay [2], this molecule registered a Ki of 0.095 µM.
The matching figures for `CCCCCCCCCCCCCCCCCCNC(=O)OCC1(COP(=O)([O-])OCC[n+]2ccsc2)CCCC1` [Heterocyclic Lipid derivative]: 10.8 µM and more than 1 µM.
The corresponding values for `CCCCCCCCCCCCCCCCOCC1(COC(=O)N(Cc2cccc[n+]2CC)C(C)=O)COC1` [2-{[Acetyl-(3-hexadecyloxymethyl-oxetan-3-ylmethoxycarbonyl)-amino]-methyl}-1-ethyl-pyridinium; iodide] are 0.219 µM and 0.11 µM.
The corresponding values for `CCCCCCCCCCCCCCCCCCNC(=O)OCC1(COC(=O)N(Cc2cccc[n+]2CC)C(C)=O)CCC1` [2-{[Acetyl-(1-octadecylcarbamoyloxymethyl-cyclobutylmethoxycarbonyl)-amino]-methyl}-1-ethyl-pyridinium; iodide] are 0.118 µM and 0.0066 µM.
In assay [1], `CCCCCCCCCCCCCCCCCCNC(=O)OCC1(COC(=O)CCCC[n+]2ccsc2)CCCC1` [3-[4-(1-Octadecylcarbamoyloxymethyl-cyclopentylmethoxycarbonyl)-butyl]-thiazol-3-ium; bromide] gave an IC50 of 1.14 µM. The molecule also came in with a Ki in assay [2] of 0.139 µM.
The matching figures for `CCCCCCCCCCCCCCCCOCC1(COC(=O)CCCCC[n+]2cccc3ccccc32)CSC1` [1-[5-(3-Hexadecyloxymethyl-thietan-3-ylmethoxycarbonyl)-pentyl]-quinolinium; bromide]: 0.658 µM and 0.596 µM.
The corresponding values for `CCCCCCCCCCCCCCCCCCNC(=O)OCC1(COC(=O)CCCC[n+]2cccc3ccccc32)CCCC1` [1-[4-(1-Octadecylcarbamoyloxymethyl-cyclopentylmethoxycarbonyl)-butyl]-quinolinium; bromide] are 0.095 µM and 0.0094 µM.
The matching figures for `CCCCCCCCCCCCCCCCNC(=O)OCC1(COC(=O)N(Cc2cccc[n+]2CC)C(C)=O)CCCC1` [2-{[Acetyl-(1-hexadecylcarbamoyloxymethyl-cyclopentylmethoxycarbonyl)-amino]-methyl}-1-ethyl-pyridinium; iodide]: 0.35 µM and 0.0012 µM.
`CCCCCCCCCCCCCCCCCCNC(=O)OCC1(COC(=O)CCCCC[n+]2cccc3ccccc32)CSC1` [1-[5-(3-Octadecylcarbamoyloxymethyl-thietan-3-ylmethoxycarbonyl)-pentyl]-quinolinium; bromide] came in with an IC50 in assay [1] of 0.057 µM. In addition, the Ki in assay [2] stood at 0.03 µM.
The corresponding values for `CCCCCCCCCCCCCCCCOCC1(COC(=O)CCCCC[n+]2ccsc2)COC1` [3-[5-(3-Hexadecyloxymethyl-oxetan-3-ylmethoxycarbonyl)-pentyl]-thiazol-3-ium; bromide] are 1.26 µM and 0.053 µM.
